ChEMBL document CHEMBL5634115, “Exploring novel anticancer pyrazole benzenesulfonamides featuring tail approach strategy as carbonic anhydrase inhibitors” (Eur J Med Chem, 2023)

Tests used:
NCI-H23 [1] = assay: cells; type: functional; details: Homo sapiens, time 48 hrs
Description: Cytostatic activity against human NCI-H23 cells assessed as total growth inhibition measured after 48 hrs by sulforhodamine B assay

UACC-62 [2] = assay: cells; type: functional; details: Homo sapiens, time 48 hrs
Description: Growth inhibition of human UACC-62 cells measured after 48 hrs by sulforhodamine B assay

COLO 205 [3] = assay: cells; details: Homo sapiens, COLO 205, 48 h, read-out: LC50
Description: Cytotoxicity activity against human COLO 205 cells assessed as reduction in cell growth measured after 48 hrs by sulforhodamine B assay

IGROV-1 = assay: cells; details: Homo sapiens, IGROV-1, 48 h, read-out: LC50
Description: Cytotoxicity activity against human IGROV-1 cells assessed as reduction in cell growth measured after 48 hrs by sulforhodamine B assay

Hs-578T [4] = assay: cells; details: Homo sapiens, 48 h, read-out: LC50
Description: Cytotoxicity activity against human Hs-578T cells assessed as reduction in cell growth measured after 48 hrs by sulforhodamine B assay

HOP-92 [5] = assay: cells; type: functional; details: Homo sapiens, time 48 hrs
Description: Cytostatic activity against human HOP-92 cells assessed as total growth inhibition measured after 48 hrs by sulforhodamine B assay

MOLT-4 [6] = assay: cells; type: functional; details: Homo sapiens, time 48 hrs
Description: Growth inhibition of human MOLT-4 cells measured after 48 hrs by sulforhodamine B assay

HCT-15 = assay: cells; type: functional; details: Homo sapiens, time 48 hrs
Description: Cytostatic activity against human HCT-15 cells assessed as total growth inhibition measured after 48 hrs by sulforhodamine B assay

786-0 = assay: cells; details: Homo sapiens, 786-0, 48 h, read-out: LC50
Description: Cytotoxicity activity against human 786-0 cells assessed as reduction in cell growth measured after 48 hrs by sulforhodamine B assay

SF-268 [7] = assay: cells; type: functional; details: Homo sapiens, time 48 hrs
Description: Cytostatic activity against human SF-268 cells assessed as total growth inhibition measured after 48 hrs by sulforhodamine B assay

NCI-H23 [8] = assay: cells; details: Homo sapiens, NCI-H23, 48 h, read-out: LC50
Description: Cytotoxicity activity against human NCI-H23 cells assessed as reduction in cell growth measured after 48 hrs by sulforhodamine B assay

OVCAR-8 = assay: cells; details: Homo sapiens, OVCAR-8, 48 h, read-out: LC50
Description: Cytotoxicity activity against human OVCAR-8 cells assessed as reduction in cell growth measured after 48 hrs by sulforhodamine B assay

SF-295 = assay: cells; type: functional; details: Homo sapiens, time 48 hrs
Description: Growth inhibition of human SF-295 cells measured after 48 hrs by sulforhodamine B assay

SW-620 = assay: cells; details: Homo sapiens, SW-620, 48 h, read-out: LC50
Description: Cytotoxicity activity against human SW620 cells assessed as reduction in cell growth measured after 48 hrs by sulforhodamine B assay

A498 [9] = assay: cells; details: Homo sapiens, A498, 48 h, read-out: LC50
Description: Cytotoxicity activity against human A498 cells assessed as reduction in cell growth measured after 48 hrs by sulforhodamine B assay

SR [10] = assay: cells; details: Homo sapiens, 48 h, read-out: LC50
Description: Cytotoxicity activity against human SR cells assessed as reduction in cell growth measured after 48 hrs by sulforhodamine B assay

HCC 2998 [11] = assay: cells; type: functional; details: Homo sapiens, time 48 hrs
Description: Growth inhibition of human HCC 2998 cells measured after 48 hrs by sulforhodamine B assay

COLO 205 [12] = assay: cells; type: functional; details: Homo sapiens, time 48 hrs
Description: Growth inhibition of human COLO 205 cells measured after 48 hrs by sulforhodamine B assay

A498 [13] = assay: cells; type: functional; details: Homo sapiens, time 48 hrs
Description: Cytostatic activity against human A498 cells assessed as total growth inhibition measured after 48 hrs by sulforhodamine B assay

PC-3 = assay: cells; type: functional; details: Homo sapiens, time 48 hrs
Description: Growth inhibition of human PC-3 cells measured after 48 hrs by sulforhodamine B assay

BT-549 = assay: cells; details: Homo sapiens, BT-549, 48 h, read-out: LC50
Description: Cytotoxicity activity against human BT-549 cells assessed as reduction in cell growth measured after 48 hrs by sulforhodamine B assay

HOP-62 = assay: cells; type: functional; details: Homo sapiens, time 48 hrs
Description: Cytostatic activity against human HOP-62 cells assessed as total growth inhibition measured after 48 hrs by sulforhodamine B assay

CAKI-1 = assay: cells; type: functional; details: Homo sapiens, time 48 hrs
Description: Cytostatic activity against human CAKI-1 cells assessed as total growth inhibition measured after 48 hrs by sulforhodamine B assay

MDA-MB-468 = assay: cells; type: functional; details: Homo sapiens, time 48 hrs
Description: Growth inhibition of human MDA-MB-468 cells measured after 48 hrs by sulforhodamine B assay

Hs-578T [14] = assay: cells; type: functional; details: Homo sapiens, time 48 hrs
Description: Growth inhibition of human Hs-578T cells measured after 48 hrs by sulforhodamine B assay

A498 [15] = assay: cells; type: functional; details: Homo sapiens, time 48 hrs; remark: listed apart in the source
Description: Growth inhibition of human A498 cells measured after 48 hrs by sulforhodamine B assay

Carbonic anhydrase 12 = Carbonic anhydrase 12 (Homo sapiens, UniProt O43570)
Chain of Carbonic anhydrase 12 (O43570 whole entry): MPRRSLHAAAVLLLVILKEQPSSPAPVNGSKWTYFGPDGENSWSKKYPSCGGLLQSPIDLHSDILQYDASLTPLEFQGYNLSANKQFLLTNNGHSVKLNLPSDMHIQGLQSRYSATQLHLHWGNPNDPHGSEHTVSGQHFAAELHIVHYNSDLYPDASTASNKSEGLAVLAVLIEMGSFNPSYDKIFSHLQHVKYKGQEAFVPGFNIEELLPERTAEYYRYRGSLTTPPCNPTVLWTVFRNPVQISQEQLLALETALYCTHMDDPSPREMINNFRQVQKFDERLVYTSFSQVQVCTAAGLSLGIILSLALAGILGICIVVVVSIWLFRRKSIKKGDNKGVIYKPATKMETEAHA
Description: Inhibition of human carbonic anhydrase 12 preincubated for 15 mins followed by substrate addition and measured after 30 mins by spectrophotometric method

HCT-116 = assay: cells; details: Homo sapiens, HCT-116, 48 h, read-out: LC50
Description: Cytotoxicity activity against human HCT-116 cells assessed as reduction in cell growth measured after 48 hrs by sulforhodamine B assay

SK-MEL-28 [16] = assay: cells; details: Homo sapiens, SK-MEL-28, 48 h, read-out: LC50
Description: Cytotoxicity activity against human SK-MEL-28 cells assessed as reduction in cell growth measured after 48 hrs by sulforhodamine B assay

SR [17] = assay: cells; type: functional; details: Homo sapiens, time 48 hrs
Description: Growth inhibition of human SR cells measured after 48 hrs by sulforhodamine B assay

OVCAR-5 [18] = assay: cells; type: functional; details: Homo sapiens, time 48 hrs
Description: Cytostatic activity against human OVCAR-5 cells assessed as total growth inhibition measured after 48 hrs by sulforhodamine B assay

EKVX = assay: cells; type: functional; details: Homo sapiens, time 48 hrs
Description: Growth inhibition of human EKVX cells measured after 48 hrs by sulforhodamine B assay

HL-60(TB) = assay: cells; type: functional; details: Homo sapiens, time 48 hrs
Description: Cytostatic activity against human HL-60(TB) cells assessed as total growth inhibition measured after 48 hrs by sulforhodamine B assay

COLO 205 [19] = assay: cells; type: functional; details: Homo sapiens, time 48 hrs; remark: listed apart in the source
Description: Cytostatic activity against human COLO 205 cells assessed as total growth inhibition measured after 48 hrs by sulforhodamine B assay

NCI/ADR-RES = assay: cells; details: Homo sapiens, 48 h, read-out: LC50
Description: Cytotoxicity activity against human NCI/ADR-RES cells assessed as reduction in cell growth measured after 48 hrs by sulforhodamine B assay

U-251 [20] = assay: cells; type: functional; details: Homo sapiens, time 48 hrs
Description: Cytostatic activity against human U-251 cells assessed as total growth inhibition measured after 48 hrs by sulforhodamine B assay

U-251 [21] = assay: cells; details: Homo sapiens, U-251, 48 h, read-out: LC50
Description: Cytotoxicity activity against human U-251 cells assessed as reduction in cell growth measured after 48 hrs by sulforhodamine B assay

HOP-92 [22] = assay: cells; type: functional; details: Homo sapiens, time 48 hrs; remark: listed apart in the source
Description: Growth inhibition of human HOP-92 cells measured after 48 hrs by sulforhodamine B assay

DU-145 [23] = assay: cells; type: functional; details: Homo sapiens, time 48 hrs
Description: Cytostatic activity against human DU-145 cells assessed as total growth inhibition measured after 48 hrs by sulforhodamine B assay

DU-145 [24] = assay: cells; type: functional; details: Homo sapiens, time 48 hrs; remark: listed apart in the source
Description: Growth inhibition of human DU-145 cells measured after 48 hrs by sulforhodamine B assay

OVCAR-3 = assay: cells; type: functional; details: Homo sapiens, time 48 hrs
Description: Growth inhibition of human OVCAR-3 cells measured after 48 hrs by sulforhodamine B assay

HCC 2998 [25] = assay: cells; details: Homo sapiens, HCC 2998, 48 h, read-out: LC50
Description: Cytotoxicity activity against human HCC 2998 cells assessed as reduction in cell growth measured after 48 hrs by sulforhodamine B assay

KM12 [26] = assay: cells; details: Homo sapiens, KM12, 48 h, read-out: LC50
Description: Cytotoxicity activity against human KM12 cells assessed as reduction in cell growth measured after 48 hrs by sulforhodamine B assay

NCI-H522 [27] = assay: cells; type: functional; details: Homo sapiens, time 48 hrs
Description: Cytostatic activity against human NCI-H522 cells assessed as total growth inhibition measured after 48 hrs by sulforhodamine B assay

LOX IMVI = assay: cells; type: functional; details: Homo sapiens, time 48 hrs
Description: Growth inhibition of human LOX IMVI cells measured after 48 hrs by sulforhodamine B assay

K562 = assay: cells; details: Homo sapiens, K562, 48 h, read-out: LC50
Description: Cytotoxicity activity against human K562 cells assessed as reduction in cell growth measured after 48 hrs by sulforhodamine B assay

MDA-MB-231 = assay: cells; type: functional; details: Homo sapiens, time 48 hrs
Description: Growth inhibition of human MDA-MB-231 cells measured after 48 hrs by sulforhodamine B assay

KM12 [28] = assay: cells; type: functional; details: Homo sapiens, time 48 hrs
Description: Cytostatic activity against human KM12 cells assessed as total growth inhibition measured after 48 hrs by sulforhodamine B assay

M14 = assay: cells; type: functional; details: Homo sapiens, time 48 hrs
Description: Growth inhibition of human M14 cells measured after 48 hrs by sulforhodamine B assay

A549 [29] = assay: cells; details: Homo sapiens, A549, 48 h, read-out: LC50
Description: Cytotoxicity activity against human A549 cells assessed as reduction in cell growth measured after 48 hrs by sulforhodamine B assay

OVCAR-5 [30] = assay: cells; type: functional; details: Homo sapiens, time 48 hrs; remark: listed apart in the source
Description: Growth inhibition of human OVCAR-5 cells measured after 48 hrs by sulforhodamine B assay

A549 [31] = assay: cells; type: functional; details: Homo sapiens, time 48 hrs
Description: Growth inhibition of human A549 cells measured after 48 hrs by sulforhodamine B assay

SK-MEL-28 [32] = assay: cells; type: functional; details: Homo sapiens, time 48 hrs
Description: Growth inhibition of human SK-MEL-28 cells measured after 48 hrs by sulforhodamine B assay

SF-268 [33] = assay: cells; type: functional; details: Homo sapiens, time 48 hrs; remark: listed apart in the source
Description: Growth inhibition of human SF-268 cells measured after 48 hrs by sulforhodamine B assay

SK-MEL-5 = assay: cells; type: functional; details: Homo sapiens, time 48 hrs
Description: Cytostatic activity against human SK-MEL-5 cells assessed as total growth inhibition measured after 48 hrs by sulforhodamine B assay

NCI-H460 = assay: cells; type: functional; details: Homo sapiens, time 48 hrs
Description: Cytostatic activity against human NCI-H460 cells assessed as total growth inhibition measured after 48 hrs by sulforhodamine B assay

NCI-H522 [34] = assay: cells; type: functional; details: Homo sapiens, time 48 hrs; remark: listed apart in the source
Description: Growth inhibition of human NCI-H522 cells measured after 48 hrs by sulforhodamine B assay

UO-31 = assay: cells; type: functional; details: Homo sapiens, time 48 hrs
Description: Growth inhibition of human UO-31 cells measured after 48 hrs by sulforhodamine B assay

NCI-H23 [35] = assay: cells; type: functional; details: Homo sapiens, time 48 hrs; remark: listed apart in the source
Description: Growth inhibition of human NCI-H23 cells measured after 48 hrs by sulforhodamine B assay

UACC-62 [36] = assay: cells; type: functional; details: Homo sapiens, time 48 hrs; remark: listed apart in the source
Description: Cytostatic activity against human UACC-62 cells assessed as total growth inhibition measured after 48 hrs by sulforhodamine B assay

MOLT-4 [37] = assay: cells; details: Homo sapiens, MOLT-4, 48 h, read-out: LC50
Description: Cytotoxicity activity against human MOLT-4 cells assessed as reduction in cell growth measured after 48 hrs by sulforhodamine B assay

T47D = assay: cells; details: Homo sapiens, 48 h, read-out: LC50
Description: Cytotoxicity activity against human T47D cells assessed as reduction in cell growth measured after 48 hrs by sulforhodamine B assay

`CCOC(=O)c1ccc(N/N=C/c2cn(-c3ccc(S(N)(=O)=O)cc3)nc2-c2ccc(C)cc2)cc1` showed a TGI (NCI-H23 [1]) of 3.26 µM, a GI50 (UACC-62 [2]) of 5.66 µM and a CC50 (COLO 205 [3]) greater than 100 µM. The CC50 (IGROV-1) was greater than 100 µM, the CC50 (Hs-578T [4]) was greater than 100 µM and the TGI (HOP-92 [5]) was 2.79 µM. It also gave a GI50 (MOLT-4 [6]) of 2.87 µM, a TGI (HCT-15) of 4.23 µM and a CC50 (786-0) of 68 µM. For the same molecule, the TGI (SF-268 [7]) was 34.2 µM, the CC50 (NCI-H23 [8]) was 94.5 µM and the CC50 (OVCAR-8) was greater than 100 µM. The GI50 (SF-295) was 6.92 µM, the CC50 (SW-620) was greater than 100 µM and the CC50 (A498 [9]) was greater than 100 µM. It also gave a CC50 (SR [10]) greater than 100 µM, a GI50 (HCC 2998 [11]) of 2.05 µM and a GI50 (COLO 205 [12]) of 11.2 µM. The TGI (A498 [13]) was 31.8 µM, the GI50 (PC-3) was 3.13 µM and the CC50 (BT-549) was greater than 100 µM. The TGI (HOP-62) was 6.55 µM, the TGI (CAKI-1) was 11.7 µM and the GI50 (MDA-MB-468) was 3.51 µM. For the same molecule, the GI50 (Hs-578T [14]) was 2.76 µM, the GI50 (A498 [15]) was 7.62 µM and the IC50 (Carbonic anhydrase 12) was 0.155 µM. For the same molecule, the CC50 (HCT-116) was 54.2 µM, the CC50 (SK-MEL-28 [16]) was 65.8 µM and the GI50 (SR [17]) was 2.65 µM. The TGI (OVCAR-5 [18]) was 20 µM, the GI50 (EKVX) was 3.17 µM and the TGI (HL-60(TB)) was 14.1 µM. It also gave a TGI (COLO 205 [19]) of 44.3 µM, a CC50 (NCI/ADR-RES) greater than 100 µM and a TGI (U-251 [20]) greater than 100 µM. It also gave a CC50 (U-251 [21]) greater than 100 µM, a GI50 (HOP-92 [22]) of 2.79 µM and a TGI (DU-145 [23]) of 24.4 µM. For the same molecule, the GI50 (DU-145 [24]) was 5.06 µM, the GI50 (OVCAR-3) was 2.57 µM and the CC50 (HCC 2998 [25]) was 8.71 µM. It also gave a CC50 (KM12 [26]) of 10.6 µM, a TGI (NCI-H522 [27]) of 2.07 µM and a GI50 (LOX IMVI) of 1.71 µM. For the same molecule, the CC50 (K562) was greater than 100 µM, the GI50 (MDA-MB-231) was 2.56 µM and the TGI (KM12 [28]) was 4.59 µM. For the same molecule, the GI50 (M14) was 1.75 µM, the CC50 (A549 [29]) was greater than 100 µM and the GI50 (OVCAR-5 [30]) was 4.29 µM. For the same molecule, the GI50 (A549 [31]) was 4.07 µM, the GI50 (SK-MEL-28 [32]) was 4.5 µM and the GI50 (SF-268 [33]) was 4.07 µM. It also gave a TGI (SK-MEL-5) of 10.2 µM, a TGI (NCI-H460) of 2.43 µM and a GI50 (NCI-H522 [34]) of 2.07 µM. It also gave a GI50 (UO-31) of 2.71 µM, a GI50 (NCI-H23 [35]) of 3.26 µM and a TGI (UACC-62 [36]) of 21.5 µM. For the same molecule, the CC50 (MOLT-4 [37]) was greater than 100 µM and the CC50 (T47D) was greater than 100 µM.
